Assay results as given in ChEMBL document CHEMBL5442741, “ASAP - In vitro kinase profile” (2024).
“And” between values parts separate entries of the source, which are not always exact repeats. Identical values can stand only once.

How the values were obtained:
[1] = biological target: T1, Aurora kinase A (Homo sapiens) (UniProt O14965); assay: Enzymatic radiometric [Km ATP] KinaseProfiler LeadHunter assay, kinase: Aurora-A, catalogue number: 14-511KP The assay has been performed by Eurofins Discovery.; details: ATP concentration 15.0 uM, Test compound concentration 10.0 uM
T1 sequence (whole entry): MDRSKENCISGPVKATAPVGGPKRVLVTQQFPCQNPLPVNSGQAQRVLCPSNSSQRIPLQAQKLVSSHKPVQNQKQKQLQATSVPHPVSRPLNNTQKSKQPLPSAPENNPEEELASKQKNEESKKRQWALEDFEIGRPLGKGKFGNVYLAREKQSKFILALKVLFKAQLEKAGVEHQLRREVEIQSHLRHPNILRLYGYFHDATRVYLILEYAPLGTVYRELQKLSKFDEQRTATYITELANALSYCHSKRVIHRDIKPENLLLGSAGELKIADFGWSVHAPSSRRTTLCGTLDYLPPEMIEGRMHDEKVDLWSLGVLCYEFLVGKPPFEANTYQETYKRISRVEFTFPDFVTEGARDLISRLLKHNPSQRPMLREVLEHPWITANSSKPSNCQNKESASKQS

[2] = biological target: Cyclin-dependent kinase 2/cyclin A (Homo sapiens) (UniProt P24941+P20248+P78396); assay: Enzymatic radiometric [Km ATP] KinaseProfiler LeadHunter assay, kinase: CDK2/cyclinA, catalogue number: 14-448KP The assay has been performed by Eurofins Discovery.; assay type: protein-complex assay; details: ATP concentration 45.0 uM, Test compound concentration 10.0 uM
[3] = biological target: T2, Serine/threonine-protein kinase Chk1 (Homo sapiens) (UniProt O14757); assay: Enzymatic radiometric [Km ATP] KinaseProfiler LeadHunter assay, kinase: CHK1, catalogue number: 14-346KP The assay has been performed by Eurofins Discovery.; details: ATP concentration 90.0 uM, Test compound concentration 10.0 uM
T2 sequence (whole entry): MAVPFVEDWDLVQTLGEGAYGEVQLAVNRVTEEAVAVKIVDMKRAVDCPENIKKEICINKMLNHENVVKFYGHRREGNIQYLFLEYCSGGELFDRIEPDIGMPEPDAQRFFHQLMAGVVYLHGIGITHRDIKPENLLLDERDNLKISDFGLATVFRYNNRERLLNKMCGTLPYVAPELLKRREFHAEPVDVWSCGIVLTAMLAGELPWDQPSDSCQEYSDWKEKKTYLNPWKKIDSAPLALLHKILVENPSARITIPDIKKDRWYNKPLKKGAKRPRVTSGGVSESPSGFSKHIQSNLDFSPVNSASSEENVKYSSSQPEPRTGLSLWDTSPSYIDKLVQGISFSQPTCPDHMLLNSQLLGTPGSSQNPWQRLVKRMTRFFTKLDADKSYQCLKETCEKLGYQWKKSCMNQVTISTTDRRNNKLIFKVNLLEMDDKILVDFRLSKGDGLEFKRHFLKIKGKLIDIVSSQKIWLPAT

[4] = biological target: Epidermal growth factor receptor (Homo sapiens) (UniProt P00533); assay: Enzymatic radiometric [Km ATP] KinaseProfiler LeadHunter assay, kinase: EGFR, catalogue number: 14-531KP The assay has been performed by Eurofins Discovery.; details: ATP concentration 10.0 uM, Test compound concentration 10.0 uM
Epidermal growth factor receptor (Homo sapiens), sequence (P00533 whole entry): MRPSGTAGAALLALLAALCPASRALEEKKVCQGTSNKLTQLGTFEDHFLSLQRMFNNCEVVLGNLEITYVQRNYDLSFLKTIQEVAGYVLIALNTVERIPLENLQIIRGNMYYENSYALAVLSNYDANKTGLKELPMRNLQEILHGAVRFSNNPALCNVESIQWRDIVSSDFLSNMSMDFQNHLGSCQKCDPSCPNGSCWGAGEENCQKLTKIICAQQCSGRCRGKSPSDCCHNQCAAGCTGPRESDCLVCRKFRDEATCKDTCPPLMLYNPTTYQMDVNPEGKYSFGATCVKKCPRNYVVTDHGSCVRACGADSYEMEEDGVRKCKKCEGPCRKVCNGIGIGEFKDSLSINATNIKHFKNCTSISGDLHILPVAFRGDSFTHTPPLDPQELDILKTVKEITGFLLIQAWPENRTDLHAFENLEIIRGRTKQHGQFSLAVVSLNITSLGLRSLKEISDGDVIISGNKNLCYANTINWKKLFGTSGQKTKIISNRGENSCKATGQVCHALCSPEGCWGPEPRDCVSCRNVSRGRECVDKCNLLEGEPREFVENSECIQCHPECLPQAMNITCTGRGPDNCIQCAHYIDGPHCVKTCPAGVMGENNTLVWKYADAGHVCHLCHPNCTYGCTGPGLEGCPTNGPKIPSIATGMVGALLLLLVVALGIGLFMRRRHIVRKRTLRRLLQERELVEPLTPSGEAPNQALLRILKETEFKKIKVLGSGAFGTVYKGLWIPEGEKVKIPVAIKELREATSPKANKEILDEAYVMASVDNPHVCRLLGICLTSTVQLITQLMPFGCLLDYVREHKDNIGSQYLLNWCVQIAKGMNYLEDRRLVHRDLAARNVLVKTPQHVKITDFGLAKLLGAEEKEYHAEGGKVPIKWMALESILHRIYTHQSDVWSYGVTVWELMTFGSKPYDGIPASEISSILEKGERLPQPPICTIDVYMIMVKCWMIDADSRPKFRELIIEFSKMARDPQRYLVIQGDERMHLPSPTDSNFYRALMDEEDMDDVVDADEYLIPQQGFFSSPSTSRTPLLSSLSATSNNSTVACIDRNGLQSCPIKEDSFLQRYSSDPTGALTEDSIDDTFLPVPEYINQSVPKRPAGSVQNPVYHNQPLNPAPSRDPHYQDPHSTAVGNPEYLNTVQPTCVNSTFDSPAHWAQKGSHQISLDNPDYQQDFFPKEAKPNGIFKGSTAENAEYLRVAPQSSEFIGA

[5] = biological target: T3, Interleukin-1 receptor-associated kinase 4 (Homo sapiens) (UniProt Q9NWZ3); assay: Enzymatic radiometric [Km ATP] KinaseProfiler LeadHunter assay, kinase: IRAK4, catalogue number: 14-599KP The assay has been performed by Eurofins Discovery.; details: ATP concentration 200.0 uM, Test compound concentration 10.0 uM
T3 sequence (whole entry): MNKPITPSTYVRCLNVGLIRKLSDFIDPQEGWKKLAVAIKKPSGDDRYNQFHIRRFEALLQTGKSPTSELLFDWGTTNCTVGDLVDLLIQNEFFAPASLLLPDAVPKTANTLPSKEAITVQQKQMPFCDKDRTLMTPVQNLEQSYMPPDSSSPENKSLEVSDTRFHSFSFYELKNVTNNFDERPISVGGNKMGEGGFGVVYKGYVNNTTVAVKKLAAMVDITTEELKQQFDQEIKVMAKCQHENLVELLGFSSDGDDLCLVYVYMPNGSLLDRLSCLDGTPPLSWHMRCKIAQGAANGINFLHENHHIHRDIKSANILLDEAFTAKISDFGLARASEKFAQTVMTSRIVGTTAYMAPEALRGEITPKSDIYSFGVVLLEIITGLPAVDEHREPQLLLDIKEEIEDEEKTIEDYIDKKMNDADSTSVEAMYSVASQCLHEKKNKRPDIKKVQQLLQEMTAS

[6] = biological target: MAP kinase-activated protein kinase 2 (Homo sapiens) (UniProt P49137); assay: Enzymatic radiometric [Km ATP] KinaseProfiler LeadHunter assay, kinase: MAPKAP-K2, catalogue number: 14-337KP The assay has been performed by Eurofins Discovery.; details: ATP concentration 90.0 uM, Test compound concentration 10.0 uM
MAP kinase-activated protein kinase 2 (Homo sapiens), sequence (P49137 whole entry, looked up): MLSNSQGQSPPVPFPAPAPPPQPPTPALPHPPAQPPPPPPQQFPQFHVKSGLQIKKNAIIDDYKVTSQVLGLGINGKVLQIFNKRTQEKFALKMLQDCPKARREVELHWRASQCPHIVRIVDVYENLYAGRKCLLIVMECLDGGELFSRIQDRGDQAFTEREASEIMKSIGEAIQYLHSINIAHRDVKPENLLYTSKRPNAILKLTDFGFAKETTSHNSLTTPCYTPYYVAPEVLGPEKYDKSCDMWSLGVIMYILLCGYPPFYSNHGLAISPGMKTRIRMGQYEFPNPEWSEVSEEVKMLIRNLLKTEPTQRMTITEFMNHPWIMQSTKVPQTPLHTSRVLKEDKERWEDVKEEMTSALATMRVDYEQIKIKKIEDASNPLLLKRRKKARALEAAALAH

[7] = biological target: Dual specificity mitogen-activated protein kinase kinase 1 (Homo sapiens) (UniProt Q02750); assay: Enzymatic radiometric [Km ATP] KinaseProfiler LeadHunter assay, kinase: MEK1, catalogue number: 14-429KP The assay has been performed by Eurofins Discovery.; details: ATP concentration 10.0 uM, Test compound concentration 10.0 uM
Dual specificity mitogen-activated protein kinase kinase 1 (Homo sapiens), sequence (Q02750 whole entry): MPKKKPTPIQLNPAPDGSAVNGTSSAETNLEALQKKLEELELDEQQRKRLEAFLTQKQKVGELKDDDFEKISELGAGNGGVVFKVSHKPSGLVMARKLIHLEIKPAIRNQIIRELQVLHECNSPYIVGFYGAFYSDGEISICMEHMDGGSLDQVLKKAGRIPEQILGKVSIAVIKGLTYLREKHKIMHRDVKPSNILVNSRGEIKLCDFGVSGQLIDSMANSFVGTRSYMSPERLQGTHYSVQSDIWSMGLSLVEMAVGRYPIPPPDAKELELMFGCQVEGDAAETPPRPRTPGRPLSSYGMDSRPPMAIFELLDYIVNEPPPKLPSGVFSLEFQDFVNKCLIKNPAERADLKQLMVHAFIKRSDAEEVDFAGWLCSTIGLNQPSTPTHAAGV

[8] = biological target: Serine/threonine-protein kinase PAK 2 (Homo sapiens) (UniProt Q13177); assay: Enzymatic radiometric [Km ATP] KinaseProfiler LeadHunter assay, kinase: PAK2, catalogue number: 14-481KP The assay has been performed by Eurofins Discovery.; details: ATP concentration 90.0 uM, Test compound concentration 10.0 uM
Serine/threonine-protein kinase PAK 2 (Homo sapiens), sequence (Q13177 whole entry): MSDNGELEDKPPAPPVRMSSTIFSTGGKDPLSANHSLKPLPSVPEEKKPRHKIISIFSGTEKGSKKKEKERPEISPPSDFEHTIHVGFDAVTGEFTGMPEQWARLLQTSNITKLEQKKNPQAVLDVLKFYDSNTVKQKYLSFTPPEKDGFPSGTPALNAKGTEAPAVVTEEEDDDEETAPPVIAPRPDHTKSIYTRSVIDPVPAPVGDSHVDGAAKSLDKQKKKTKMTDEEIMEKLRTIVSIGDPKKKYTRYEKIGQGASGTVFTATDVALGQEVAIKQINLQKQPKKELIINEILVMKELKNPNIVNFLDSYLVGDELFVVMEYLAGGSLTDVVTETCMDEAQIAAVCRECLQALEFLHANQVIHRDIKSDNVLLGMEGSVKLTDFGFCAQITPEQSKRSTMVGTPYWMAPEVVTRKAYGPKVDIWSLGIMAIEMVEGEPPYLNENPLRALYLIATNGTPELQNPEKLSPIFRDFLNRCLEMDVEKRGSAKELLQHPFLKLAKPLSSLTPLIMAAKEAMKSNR

[9] = biological target: RAC-alpha serine/threonine-protein kinase (Homo sapiens) (UniProt P31749); assay: Enzymatic radiometric [Km ATP] KinaseProfiler LeadHunter assay, kinase: PKB-alpha, catalogue number: 14-276KP The assay has been performed by Eurofins Discovery.; details: ATP concentration 155.0 uM, Test compound concentration 10.0 uM
RAC-alpha serine/threonine-protein kinase (Homo sapiens), sequence (P31749 whole entry): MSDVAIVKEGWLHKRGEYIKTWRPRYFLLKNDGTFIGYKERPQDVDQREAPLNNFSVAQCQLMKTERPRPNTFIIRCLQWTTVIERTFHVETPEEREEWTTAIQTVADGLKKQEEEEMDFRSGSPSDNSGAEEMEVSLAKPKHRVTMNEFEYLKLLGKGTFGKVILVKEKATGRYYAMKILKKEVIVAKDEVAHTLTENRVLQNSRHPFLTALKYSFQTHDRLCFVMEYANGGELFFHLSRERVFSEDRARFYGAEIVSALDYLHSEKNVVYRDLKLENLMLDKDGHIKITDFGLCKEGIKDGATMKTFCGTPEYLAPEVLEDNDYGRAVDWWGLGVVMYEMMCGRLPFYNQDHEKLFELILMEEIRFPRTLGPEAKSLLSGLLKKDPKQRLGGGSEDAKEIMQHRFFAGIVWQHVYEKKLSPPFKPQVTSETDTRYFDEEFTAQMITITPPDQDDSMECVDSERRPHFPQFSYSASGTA

[10] = biological target: T4, MAP kinase-activated protein kinase 5 (Homo sapiens) (UniProt Q8IW41); assay: Enzymatic radiometric [Km ATP] KinaseProfiler LeadHunter assay, kinase: PRAK, catalogue number: 14-334KP The assay has been performed by Eurofins Discovery.; details: ATP concentration 15.0 uM, Test compound concentration 10.0 uM
T4 sequence (whole entry): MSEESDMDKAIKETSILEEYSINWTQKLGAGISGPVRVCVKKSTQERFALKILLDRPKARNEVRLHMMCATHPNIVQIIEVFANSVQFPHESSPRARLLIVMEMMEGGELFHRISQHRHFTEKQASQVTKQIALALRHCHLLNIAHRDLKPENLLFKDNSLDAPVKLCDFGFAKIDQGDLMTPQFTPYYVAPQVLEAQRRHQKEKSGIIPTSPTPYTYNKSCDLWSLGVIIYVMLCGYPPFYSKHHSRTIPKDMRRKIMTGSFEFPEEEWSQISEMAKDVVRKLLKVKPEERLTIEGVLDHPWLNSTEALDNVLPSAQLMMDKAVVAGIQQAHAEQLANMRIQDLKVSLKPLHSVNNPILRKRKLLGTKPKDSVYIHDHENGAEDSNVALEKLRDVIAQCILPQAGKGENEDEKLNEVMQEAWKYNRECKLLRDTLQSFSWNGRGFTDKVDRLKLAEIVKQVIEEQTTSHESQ

[11] = biological target: SRSF protein kinase 1 (Homo sapiens) (UniProt Q96SB4); assay: Enzymatic radiometric [Km ATP] KinaseProfiler LeadHunter assay, kinase: SRPK1, catalogue number: 14-564KP The assay has been performed by Eurofins Discovery.; details: ATP concentration 10.0 uM, Test compound concentration 10.0 uM
SRSF protein kinase 1 (Homo sapiens), sequence (Q96SB4 whole entry): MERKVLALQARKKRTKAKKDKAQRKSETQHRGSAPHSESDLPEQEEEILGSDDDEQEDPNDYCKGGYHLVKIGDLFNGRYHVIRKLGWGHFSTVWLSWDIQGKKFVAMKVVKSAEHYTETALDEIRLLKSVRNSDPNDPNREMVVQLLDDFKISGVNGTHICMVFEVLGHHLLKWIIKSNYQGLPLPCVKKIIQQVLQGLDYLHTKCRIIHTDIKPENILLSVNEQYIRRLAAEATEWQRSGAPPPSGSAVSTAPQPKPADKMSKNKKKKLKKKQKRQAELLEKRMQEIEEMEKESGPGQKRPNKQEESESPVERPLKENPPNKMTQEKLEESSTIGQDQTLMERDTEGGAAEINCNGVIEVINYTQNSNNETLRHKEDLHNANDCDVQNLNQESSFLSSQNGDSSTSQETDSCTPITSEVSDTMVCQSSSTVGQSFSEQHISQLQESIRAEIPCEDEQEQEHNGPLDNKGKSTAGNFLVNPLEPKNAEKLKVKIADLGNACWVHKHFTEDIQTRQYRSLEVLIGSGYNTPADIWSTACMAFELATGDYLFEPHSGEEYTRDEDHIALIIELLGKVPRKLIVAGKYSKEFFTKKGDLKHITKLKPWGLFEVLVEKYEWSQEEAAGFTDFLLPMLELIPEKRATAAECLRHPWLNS

SMILES	Activity [1]	Activity [2]	Activity [3]	Activity [4]	Activity [5]	Activity [6]	Activity [7]	Activity [8]	Activity [9]	Activity [10]	Activity [11]
Cn1ncc(-c2cc3c(N[C@@H](c4ccc5c(n4)OCCO5)C(C)(C)C)ncnc3[nH]2)c1C#N	95%	114%	125%	99%	132%	110%	98%	111%	103%	86%	117%
CNC(=O)Cn1cc(-c2cc3c(N[C@@H](c4ccc5c(c4)S(=O)(=O)CCC5)C(C)C)ncnc3[nH]2)cn1	77%	95%	107%	98%	101%	111%	97%	103%	95%	89%	94%
CNCc1cc(-c2cc3c(N[C@@H](c4ccc5c(c4)S(=O)(=O)CCC5)C(C)C)ncnc3[nH]2)co1	73%	98%	111%	97%	100%	106%	97%	94%	96%	122%	101%
CC(C)[C@@H](Nc1ncnc2[nH]c(C(=O)N[C@@H]3CCN(C)C3)cc12)c1ccc2c(c1)S(=O)(=O)CCC2	97%	117%	118%	102%	105%	108%	107%	99%	88%	111%	108%
CC(C)[C@H](Nc1ncnc2[nH]c(-c3cnn(C)c3C#N)cc12)c1ccc2c(n1)OCCO2	53%	104%	119%	90%	106%	115%	97%	99%	90%	84%	111%
CC(C)[C@@H](Nc1ncnc2[nH]c(-c3cnn(C)c3C#N)cc12)c1ccc2c(n1)OCCO2	44% and 58%	95% and 104%	108% and 120%	81% and 77%	100% and 99%	98% and 114%	99% and 103%	95% and 99%	95% and 94%	95% and 89%	92% and 104%
Cc1nn(C)cc1-c1cc2c(N[C@H](c3ccc4c(c3)S(=O)(=O)CCC4)C(C)C)ncnc2[nH]1	55%	107%	102%	87%	107%	110%	99%	100%	91%	82%	104%

Further lines, results first:

Activity [1]	Activity [2]	Activity [3]	Activity [4]	Activity [5]	Activity [6]	Activity [7]	Activity [8]	Activity [9]	Activity [10]	Activity [11]	SMILES
84%	113%	110%	97%	109%	102%	100%	107%	97%	109%	103%	COc1ccc([C@H](Cc2nnn[nH]2)NC(=O)c2ncnc3[nH]ccc23)cc1
57%	96%	84%	102%	88%	105%	97%	110%	96%	107%	105%	CC(C)[C@@H](Nc1ncnc2[nH]ccc12)c1ccc2c(c1)S(=O)(=O)CCC2
71%	97%	95%	96%	91%	92%	92%	102%	94%	95%	102%	COc1ccc([C@@H](Cc2nnn[nH]2)NC(=O)c2ncnc3[nH]ccc23)cc1
51%	102%	110%	95%	112%	106%	94%	102%	95%	102%	100%	CC(C)[C@H](Nc1ncnc2[nH]ccc12)c1ccc2c(c1)S(=O)(=O)CCC2
72%	102%	99%	93%	106%	98%	89%	95%	95%	88%	97%	C[C@H](C(=O)O)[C@@H](NC(=O)c1ncnc2[nH]ccc12)c1ccc(Br)cc1
